Like-named read-outs stand apart in the source and are kept apart here. Marks after values point to notes of the source that are not given here.
Experiments:
[1] = Non-specific binding in S9 fractions of mouse liver, kidney and pancreas homogenates, rapid equilibrium dialysis; format: in vitro ADME; conditions: for fraction unbound at 4 h, 50 μM: pH 7.4, 37 °C, mean ± SD (n = 3); for unbound (free) portion, range over liver, kidney and pancreas: range over the studied mouse tissues
Protocol: The unbound fractions of FA, D1, and D2 were determined in the S9 subcellular fractions of the mouse liver, kidneys, and pancreas using rapid equilibrium dialysis (RED) plates (Thermo Fisher Scientific, Inc., Waltham, MA, USA). Briefly, the studied compounds were spiked at a 50 μM concentration into 100 μL of mouse homogenate S9 subcellular fraction and transferred to the reaction chamber. Homogenate dilutions were 1:4 (w/v) for the liver and kidney, and 1:20 (w/v) for the pancreas. A total of 350 μL of TBS (pH 7.4) buffer was added to the buffer chamber of the RED plate. The dialysis plate was incubated at 37 °C with shaking for 4 h. Samples of 50 μL were collected from both the reaction and buffer chambers, and equal amounts of buffer and S9 fraction were added to the collected samples, respectively, to yield identical sample matrices. The proteins were precipitated by diluting samples with 100 μL of ice-cold acetonitrile. Samples were centrifuged at 12 000 × g for 10 min, and the supernatants were collected for HPLC analysis.
The unbound fraction (fu,tissue) of the FA and its derivatives was calculated using eq 1 [drawing 1] 1 where D is the dilution factor of studied tissue homogenate, and fu,homogenate is the distribution ratio of the studied compound measured in the reaction and buffer chambers within the equilibrium dialysis assay.[29]

[2] = RBC lysis assay (hemolysis); format: cell-based; conditions: 2% erythrocyte (RBC) suspension, human RBCs, 37 °C, Triton X = 100%, control 2.08 ± 0.15%, read-out: hemolysis rate
Protocol: To further evaluate the safety of derivatives in human blood, the effects of FA, D1, and D2 on hemolysis were studied using a previously described protocol.[31] Shortly, freshly collected erythrocytes were washed three times with 1 mL of 0.9% saline (Sigma-Aldrich, Germany). Subsequently, 2% RBC suspension was prepared by diluting 1 mL of erythrocytes in 50 mL of 0.9% saline. FA, D1, and D2 (1–100 μM) were incubated with the RBC suspension at 37 °C for 1 h. Additionally, negative controls containing 0.9% NaCl and positive controls with Triton X-100 (Polish Chemical Reagents, Poland) were studied. After incubation, the samples were centrifuged at 3 000 rpm for 10 min, and the absorbance values were measured from the collected supernatants at the wavelength of 550 nm. Samples with Triton X (positive control) represented 100% hemolysis. Results of the studies are presented as a percentage of released hemoglobin. The counted CV was 8.1% (n = 5). Additionally, the influence of FA and its derivatives (25–100 μM) on RBC morphology was studied using a phase contrast Opta-Tech inverted microscope. The morphology was analyzed using a dedicated OptaView 7 software (Opta-Tech, Warsaw, Poland).

[3] = tested on: HUVECs; assay: HUVEC morphology, phase-contrast microscopy; format: cell-based, human; conditions: 24 h incubation
Protocol: As a third in vitro toxicity study in the human blood circulation system, the effects of FA, D1, and D2 on the viability of human umbilical vein endothelial cells (HUVECs; RRID CVCL_2959; Lonza, Italy; Cat. no. CC-2517) were determined using the WST-1 assay (Takara, Takara Bio Europe, Europe, Saint-Germain-en-Laye, France), according to the previously published protocol.[32] Briefly, the cells were cultured according to the manufacturer’s guidelines with the following ingredients: EGM-2-medium + bullet kit (Lonza, Clonetics, Italy), accutase (Sigma-Aldrich, Germany), and HEPES-buffered saline solution (Lonza, Basel, Switzerland). For the assay, the cells were seeded at the density of 7 500 HUVECs per well on 96-well plates and cultured for 24 h to obtain 70% confluency. Subsequently, the cells were treated with studied compounds in multiplicate (n = 6–8) at the concentration of 0.1–100 μM in the growth medium for 24 h (37 °C, 5% CO2). Cells with untreated growth medium represented 100% viability, whereas cells treated with medium containing 0.5% (v/v) methanol served as a negative control for drug solvent. After treating cells for 24 h, medium was removed, the cells were washed with the culture medium (100 μl/well), and 100 μL of WST-1 reagent dissolved in culture medium was added into each well. The plates were incubated at 37 °C with 5% CO2 for 2 h, after which absorbance values were measured at the 450 nm wavelength using a microplate reader (iMARK, Bio-Rad). Additionally, the effects of treatments on HUVEC morphology were examined microscopically using a phase-contrast Opta-Tech inverted microscope equipped with OptaView 7 software (Opta-Tech, Warsaw, Poland) for image analysis.

[4] = mouse plasma, equilibrium dialysis, 4 h incubation, n = 2; cited from earlier work
[5] = mice, cited from earlier work; for AUCtotal plasma: 25 μmol/kg i.p. bolus; for tmax plasma / Cmax / AUCu, plasma / Cmax, u plasma / AUCtotal plasma of released FA / AUCu, plasma of released FA / Cmax, u plasma of released FA: 25 μmol/kg i.p.; for peak concentration in plasma: after a high bolus dose (25 μmol/kg i.p.); for Cmax: read-out: Cmax plasma; for AUCu, plasma / Cmax, u plasma: unbound; for AUCtotal plasma of released FA / AUCu, plasma of released FA / Cmax, u plasma of released FA: FA released from the dosed derivative
[6] = S9 subcellular fraction of kidney homogenate, mouse kidney S9, 50 μM, read-out: fu, kidney (%)
[7] = S9 subcellular fraction of liver homogenate, mouse liver S9, 50 μM, read-out: fu, liver (%)
[8] = S9 subcellular fraction of pancreas homogenate, mouse pancreas S9, 50 μM, read-out: fu, pancreas (%)

Row | Structure (SMILES) | fraction unbound at 4 h, 50 μM [1, 6] | fraction unbound at 4 h, 50 μM [1, 7] | fraction unbound at 4 h, 50 μM [1, 8] | unbound (free) portion, range over liver, kidney and pancreas [1] | hemolysis at 1 h, 100 µM [2] | HUVEC morphology at 100 μM [3] | HUVEC morphology at 25–50 μM [3] | fu, plasma (%) [4] | AUCtotal plasma [5] | tmax plasma [5] | peak concentration in plasma [5] | Cmax [5] | AUCu, plasma [5] | Cmax, u plasma [5] | HUVEC morphology at 50 μM [3] | AUCtotal plasma of released FA [5] | AUCu, plasma of released FA [5] | Cmax, u plasma of released FA [5]
1 | COc1cc(C=CC(=O)O)ccc1O [ferulic acid, 4-hydroxy-3-methoxycinnamic acid] | 0.991 ± 0.105 | 0.849 ± 0.145 | 0.993 ± 0.0196 | 84.94–99.30% | 2.38 ± 1.84% | more elongated cells were seen | did not change cell morphology | 9.94–11.51 ^b % | 591 nmol·min/mL | 10 min | 33.2 µM | 33.2 µM | 63 nmol·min/mL | 3.6 µM |  |  |  | 
2 | COc1cc(/C=C/C(=O)Nc2cccc(C[C@H](N)C(=O)O)c2)ccc1O [derivative 2] | 0.305 ± 0.0063 | 0.236 ± 0.0109 | 0.15 ± 0.0206 | 15.01–30.52% | 1.97 ± 1.25% | reduced the number of viable cells and cell density as well as caused an irregular shape with cytoplasm leakage |  | 8.37–9.01 ^b % | 463 nmol·min/mL | 10 (released 10) min |  | 21.1 µM | 40 nmol·min/mL | 1.8 µM | first brighter cells appearing | 75 nmol·min/mL | 8 nmol·min/mL | 0.2 µM
3 | COc1cc(C=CC(=O)NCc2cccc(CC(N)C(=O)O)c2)ccc1O (centres unmarked) [derivative 1] | 0.469 ± 0.0593 | 0.425 ± 0.0544 | 0.28 ± 0.0147 | 28.02–46.85% | 3.58 ± 0.69% | slightly more rounded, bright dead cells were observed | did not cause significant changes in HUVEC morphology | 19.66–30.62 ^b % | 1042 nmol·min/mL | 10 min | 41.9 µM | 41.9 µM | 262 nmol·min/mL | 10.5 µM |  | 507 nmol·min/mL | 54 nmol·min/mL | 0.3 µM

Source: article PMC9644403, “L-type Amino Acid Transporter 1 Utilizing Ferulic Acid Derivatives Show Increased Drug Delivery in the Mouse Pancreas Along with Decreased Lipid Peroxidation and Prostaglandin Production” (Molecular Pharmaceutics, 2022)
